This is an account of results in patent US9487516B2, “Antibacterial oxadiazolone derivatives” (priority 2013, dated 2016).

Test in all cases: Bacterial growth minimal inhibitory concentration (microdilution, cation-adjusted Mueller-Hinton Broth)
Common to all, as to type: cell-based
(Broth dilution looks for growth in wells or tubes with falling amounts of substance.)

Test [1] deals with Acinetobacter baumanii T6474. The settings on record: Acinetobacter baumannii, multiply-resistant strain (in particular quinolone-resistant). How it is done:
(§1) Minimal Inhibitory Concentrations (MICs; mg/L) were determined in cation-adjusted MuellerHinton Broth by a microdilution method following the description given in “Methods for Dilution Antimicrobial Susceptibility Tests for Bacteria that Grow Aerobically”, Approved standard, 7th ed., Clinical and Laboratory Standards Institute (CLSI) Document M7-A7, Wayne, Pa., USA, 2006.
(§2) All Example compounds were tested against several Gram positive and Gram negative bacteria. […] Staphylococcus aureus A798, Enterococcus faecium A949 and Acinetobacter baumanii T6474 are multiply-resistant strains (in particular quinolone-resistant), while Moraxella catarrhalis A894 is a quinolone-sensitive strain and Staphylococcus aureus ATCC29213 is a methicillin-sensitive and quinolone-sensitive strain.

In test [2] the test system is Enterococcus faecium A949. The settings on record: multiply-resistant strain (in particular quinolone-resistant), read-out: MIC for E. faecium A949. The protocol: as §1, §2
In test [3] the test system is Moraxella catarrhalis A894. The settings on record: quinolone-sensitive strain. The protocol: as §1, §2
The test system of test [4] is Staphylococcus aureus A798. The settings on record: multiply-resistant strain (in particular quinolone-resistant), read-out: MIC for S. aureus A798. How it is done: as §1, §2
Test [5] relates to Staphylococcus aureus ATCC29213. The settings on record: methicillin-sensitive and quinolone-sensitive strain, read-out: MIC for S. aureus ATCC29213. The protocol: as §1, §2

Converted amounts (≈) assume the structure as drawn.

`O=C1COc2ccc(-n3nc(CCCN[C@@H]4Cn5c(=O)cnc6cccc4c65)oc3=O)nc2N1` [Example 35, (S)-6-{3-[5-oxo-4-(3-oxo-3,4-dihydro-2H-pyrido[3,2-b][1,4]oxazin-6-yl)-4,5-dihydro-[1,3,4]oxadiazol-2-yl]-propylamino}-5,6-dihydro-pyrrolo[1,2,3-de]quinoxalin-3-one]: the MIC in test [1] was 2 µg/mL (≈ 4.33 µM); in test [2], 4 µg/mL (≈ 8.67 µM); in test [3], 0.5 µg/mL (≈ 1.08 µM); in test [4] it was 1 µg/mL (≈ 2.17 µM); in test [5], 0.5 µg/mL (≈ 1.08 µM).
Take `O=C1COc2ccc(-n3nc(CCCN[C@H]4Cn5c(=O)cnc6cccc4c65)oc3=O)nc2N1` [Example 36, (R)-6-{3-[5-oxo-4-(3-oxo-3,4-dihydro-2H-pyrido[3,2-b][1,4]oxazin-6-yl)-4,5-dihydro-[1,3,4]oxadiazol-2-yl]-propylamino}-5,6-dihydro-pyrrolo[1,2,3-de]quinoxalin-3-one]: the MIC was 4 µg/mL (≈ 8.67 µM) in test [1]; 8 µg/mL (≈ 17.3 µM) in test [2]; 2 µg/mL (≈ 4.33 µM) in test [3]; 4 µg/mL (≈ 8.67 µM) in test [4]; 4 µg/mL (≈ 8.67 µM) in test [5].
For `O=C1COc2ccc(-n3nc(CCCN[C@@H]4Cn5c(=O)ccc6ncc(F)c4c65)oc3=O)nc2N1` [Example 37, (S)-3-fluoro-4-{3-[5-oxo-4-(3-oxo-3,4-dihydro-2H-pyrido[3,2-b][1,4]oxazin-6-yl)-4,5-dihydro-[1,3,4]oxadiazol-2-yl]-propylamino}-4,5-dihydro-pyrrolo[3,2,1-de][1,5]naphthyridin-7-one], the MIC in test [1] came to 2 µg/mL (≈ 4.17 µM); in test [2] it was 4 µg/mL (≈ 8.34 µM); in test [3] it was 0.125 µg/mL (≈ 0.261 µM); in test [4], 0.25 µg/mL (≈ 0.521 µM); in test [5] it was 0.25 µg/mL (≈ 0.521 µM).
On to `O=C1COc2ccc(-n3nc(CCCN[C@H]4Cn5c(=O)ccc6ncc(F)c4c65)oc3=O)nc2N1` [Example 38, (R)-3-fluoro-4-{3-[5-oxo-4-(3-oxo-3,4-dihydro-2H-pyrido[3,2-b][1,4]oxazin-6-yl)-4,5-dihydro-[1,3,4]oxadiazol-2-yl]-propylamino}-4,5-dihydro-pyrrolo[3,2,1-de][1,5]naphthyridin-7-one], for which the MIC in test [1] was found to be 2 µg/mL (≈ 4.17 µM); in test [2] it was 4 µg/mL (≈ 8.34 µM); in test [3], 0.5 µg/mL (≈ 1.04 µM); in test [4] it was 0.5 µg/mL (≈ 1.04 µM); in test [5], 0.5 µg/mL (≈ 1.04 µM).
As for `COc1ccc2ccc(=O)n3c2c1[C@H](NCCCc1nn(-c2ccc4c(n2)NC(=O)CO4)c(=O)o1)C3` [Example 39, (S)-9-methoxy-1-{3-[5-oxo-4-(3-oxo-3,4-dihydro-2H-pyrido[3,2-b][1,4]oxazin-6-yl)-4,5-dihydro-[1,3,4]oxadiazol-2-yl]-propylamino}-1,2-dihydro-pyrrolo[3,2,1-ij]quinolin-4-one], the MIC in test [1] is 1 µg/mL (≈ 2.04 µM); in test [2], 8 µg/mL (≈ 16.3 µM); in test [3] it was 1 µg/mL (≈ 2.04 µM); in test [4], 2 µg/mL (≈ 4.08 µM); in test [5] it was 1 µg/mL (≈ 2.04 µM).
With `Cc1ccc2ccc(=O)n3c2c1[C@H](NCCCc1nn(-c2ccc4c(n2)NC(=O)CO4)c(=O)o1)C3` [Example 40, (S)-9-methyl-1-{3-[5-oxo-4-(3-oxo-3,4-dihydro-2H-pyrido[3,2-b][1,4]oxazin-6-yl)-4,5-dihydro-[1,3,4]oxadiazol-2-yl]-propylamino}-1,2-dihydro-pyrrolo[3,2,1-ij]quinolin-4-one], the MIC amounted to 2 µg/mL (≈ 4.22 µM) in test [1]; 2 µg/mL (≈ 4.22 µM) in test [2]; 0.5 µg/mL (≈ 1.05 µM) in test [3]; 2 µg/mL (≈ 4.22 µM) in test [4]; 1 µg/mL (≈ 2.11 µM) in test [5].
In the case of `N#Cc1ccc2ccc(=O)n3c2c1[C@H](NCCCc1nn(-c2ccc4c(n2)NC(=O)CO4)c(=O)o1)C3` [Example 41, (S)-4-oxo-1-{3-[5-oxo-4-(3-oxo-3,4-dihydro-2H-pyrido[3,2-b][1,4]oxazin-6-yl)-4,5-dihydro-[1,3,4]oxadiazol-2-yl]-propylamino}-1,2-dihydro-4H-pyrrolo[3,2,1-ij]quinoline-9-carbonitrile], the MIC in test [1] came to 0.125 µg/mL (≈ 0.257 µM); in test [2] it was 0.5 µg/mL (≈ 1.03 µM); in test [3] it was 0.063 µg/mL (≈ 0.13 µM); in test [4] it was 0.125 µg/mL (≈ 0.257 µM); in test [5], 0.063 µg/mL (≈ 0.13 µM).

As usually defined, the MIC is the least concentration at which growth counts as inhibited.
